What all share (test): NCI-60 cell line screen, 48 h
For test [1], the system named is DMS-114.
Test [2] deals with DMS-273.
In test [3] the test system is HOP-18.
In test [4] the test system is KM-20L2.
Test [5] concerns LXFL 529.
Test [6] deals with M19-MEL.
The subject of test [7] is RXF 631.
Test [8] deals with XF498.
The subject of test [9] is DLD-1.

Structures are written as SMILES.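 Results reflect a 48-hour exposure of cells in 96-well plates to compound at five concentrations. GI50 marks 50% less growth.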 Calls of active or inactive are those of the source. No stated cut-off is given here; in the data, active = GI50 up to about 1.1 µM and inactive = higher.

Regarding `COc1cc2c(cc1OC)C(C#N)(Cc1ccccc1)N(C(=O)c1ccccc1)C=C2` (stereo not drawn), the GI50 in test [1] is 17.6 µM (inactive); in test [2], 60.7 µM (inactive); in test [3], > 100 µM (inactive); in test [4], 67.3 µM (inactive); in test [5], 39.4 µM (inactive); in test [6], 96.6 µM (inactive). The GI50 in test [7] was 45.3 µM (inactive); in test [8], 8.15 µM (inactive).
Regarding `ClC1=C(Cl)C(Cl)(Cl)c2c3c(c4c(c21)C(Cl)(Cl)C(Cl)=C4Cl)C(Cl)(Cl)C(Cl)=C3Cl`, the GI50 in [1], in test [2], in [4], in [5] and in [8] was > 100 µM (inactive) throughout.
On to `Oc1ncc(N(CCCl)CCCl)c(O)n1` [URACIL MUSTARD], for which the GI50 in [9] is 78.3 µM (inactive); in test [1], 14 µM (inactive); in test [2], 4.55 µM (inactive); in test [3], 51.6 µM (inactive); in test [4], 69.5 µM (inactive); in test [5], 71.4 µM (inactive). Also, the figures for the GI50 in [6] and in test [8] were 63.2 µM (inactive) and 23 µM (inactive), respectively.
With `CS/C(=N/C(=O)c1ccccc1)SCCS/C(=N\C(=O)c1ccccc1)SC`, the GI50 in [9] is > 100 µM (inactive); in test [1], 90.4 µM (inactive); in [2] it was > 100 µM (inactive); in test [4], > 100 µM (inactive); in test [5] it was > 100 µM (inactive); in [6], > 100 µM (inactive). Further, the GI50 in [7] and in [8] was > 100 µM (inactive) throughout.
On to `O=C(Cc1nc2ccccc2o1)C(=O)Nc1ccc(Cl)cc1Cl`, for which the GI50 in test [9], in test [1], in [2], in test [3], in test [4] and in test [5] was > 100 µM (inactive) throughout. In addition, in test [6], the GI50 was > 100 µM (inactive).
As to `CC(=O)NC(CCCCNC(=O)OCc1ccccc1)C(=O)NCc1ccccc1` (stereo not drawn), the GI50 in test [9], in [1], in test [2], in test [4], in test [5] and in test [6] was > 100 µM (inactive) each time. For the same compound, the GI50 in test [8] is > 100 µM (inactive).
In the case of `CC(C)c1cccc(C(C)C)c1N1C(=O)C(=O)C(c2nc3ccccc3o2)C(=O)C1=O`, the GI50 in [9] is 31.6 µM (inactive); in test [1], 24.5 µM (inactive); in test [2] it was 68.2 µM (inactive); in test [4] it was 79.1 µM (inactive); in test [5], 42.2 µM (inactive); in [6], 63.4 µM (inactive). The GI50 in test [7] is > 100 µM (inactive); in test [8], 38.5 µM (inactive).
Take `COC(=O)C1=C(SC)SC2(C(=O)OC)C3C=C(C)C4C(N13)C42C(=O)OC` (stereo not drawn): the GI50 in test [9], in test [1], in [2], in test [4], in test [5] and in test [6] was > 100 µM (inactive) in each case.
As to `CC(=O)NN1C(=O)C(Cc2ccccc2)c2ccccc21` (stereo not drawn), the GI50 in [9], in [1], in test [2], in [3], in [4] and in [6] was > 100 µM (inactive) throughout. Further, the GI50 in test [7] and in [8] was > 100 µM (inactive) in each case.
`Nc1ccc(C(=O)NN2C(=O)C(Cl)C2c2ccccc2)cc1` (stereo not drawn): the GI50 in test [9], in test [1], in [2], in test [4], in test [5] and in [6] was > 100 µM (inactive) throughout. The GI50 in test [8] was > 100 µM (inactive).
Turning to `CC(=O)O[C@H]1CCC2[C@@H]3CCC4C(=O)c5oncc5C[C@]4(C)C3CC[C@@]21C` (stereo partly drawn), the GI50 in test [9], in test [1], in [2], in [4], in [5] and in [6] was > 100 µM (inactive) throughout. For the same compound, in test [8], the GI50 was > 100 µM (inactive).
`O=C(NCc1ccncc1)C1COc2cc(-c3cc(=O)c4ccccc4o3)ccc2O1` (stereo not drawn): the GI50 in test [9], in [4], in test [5], in [6] and in [8] was > 100 µM (inactive) each time.
Consider `CCSc1nc(-c2ccc(OC)cc2)c(C#N)c(=O)n1C1OCC(OC(C)=O)C(OC(C)=O)C1OC(C)=O` (stereo not drawn), for which the GI50 was > 100 µM (inactive) in [9]; 72.4 µM (inactive) in test [1]; > 100 µM (inactive) in [2]; 30 µM (inactive) in [3]; > 100 µM (inactive) in test [4]; 44.6 µM (inactive) in test [5]. Also, the GI50 in test [6] was > 100 µM (inactive).
`CC(C)(C)c1ccc2c(c1)S(=O)(=O)Nc1ccccc1NS(=O)(=O)c1cc(C(C)(C)C)ccc1OCCOCCOCCO2`: the GI50 was > 100 µM (inactive) in [9]; > 100 µM (inactive) in test [1]; > 100 µM (inactive) in test [2]; > 100 µM (inactive) in test [3]; > 100 µM (inactive) in test [6]; 97.3 µM (inactive) in test [7].
On to `OCCCc1cnco1`, for which the GI50 in test [9], in test [2], in [3], in test [4], in test [5] and in [6] was > 100 µM (inactive) in each case. For the same compound, the GI50 in test [8] was > 100 µM (inactive).
In the case of `C/C(C=O)=C1\C(O)C[C@]1(C)C1CC(C)(C)CC1O` (stereo partly drawn), the GI50 in [9] was > 100 µM (inactive); in test [1] it was 39.1 µM (inactive); in [2], > 100 µM (inactive); in [4], > 100 µM (inactive); in test [5], 57.1 µM (inactive); in [6] it was > 100 µM (inactive).
As to `CCOC(=O)Nc1ccc(S(=O)(=O)I)cc1.CCOC(=O)Nc1ccc(S(=O)(=O)I)cc1.CNC(=O)N=O.NC(=O)OCCCl`, the GI50 in test [9], in test [1], in test [4], in [5], in [7] and in [8] was > 100 µM (inactive) in each case.
As for `COc1cc(/C=C2/C(=O)N(C(=O)OCc3ccccc3)C(Cc3cc(OC)c(OC)c(C)c3OC)C(=O)N2Cc2ccccc2)c(OC)c(C)c1OC` (stereo not drawn), the GI50 was > 100 µM (inactive) in test [9]; 54.6 µM (inactive) in test [1]; 40.6 µM (inactive) in test [2]; 95.3 µM (inactive) in [3]; > 100 µM (inactive) in [4]; 9.42 µM (inactive) in [5]. The GI50 in test [6] is 69.7 µM (inactive); in test [7], > 100 µM (inactive).
On to `N/C(=N\O)N/N=C\c1c2ccccc2c(Cl)c2ccccc12`, for which the GI50 in test [9] was 5.79 µM (inactive); in test [1], 3.19 µM (inactive); in test [2], 1.98 µM (inactive); in [3] it was 2.45 µM (inactive); in [4], 2.02 µM (inactive); in test [6], 6.61 µM (inactive). Further, the GI50 in test [8] was 16.8 µM (inactive).
Consider `O=C1c2ccccc2C2(O)c3cc4ccccc4cc3OC12O` (stereo not drawn), for which the GI50 is > 100 µM (inactive) in test [9]; 25.1 µM (inactive) in [1]; 46.8 µM (inactive) in test [2]; 69.7 µM (inactive) in test [3]; > 100 µM (inactive) in test [4]; 55.5 µM (inactive) in [5]. Further, the GI50 in [6] is 47.2 µM (inactive).
Regarding `O=Cc1cc2c(s1)C(=O)c1sccc1C2=O`, the GI50 is 0.351 µM (active) in test [9]; 0.188 µM (active) in [1]; 0.168 µM (active) in [2]; 0.183 µM (active) in [3]; 2.1 µM (inactive) in [4]; 0.2 µM (active) in [5]. Further, the GI50 in test [6] was 0.0237 µM (active); in test [8] it was 1.26 µM (inactive).
`CN(C)c1ccc(N=O)c(O)c1.CN(C)c1ccc(N=O)c(O)c1.[SiH4]`: the GI50 is 8.28 µM (inactive) in [9]; 3.72 µM (inactive) in [1]; 12.1 µM (inactive) in [3]; 4.65 µM (inactive) in [4]; 5.64 µM (inactive) in [5]; 5.56 µM (inactive) in test [6]. Also, the GI50 in [8] was 9.4 µM (inactive).
Take `CCOC(=O)/C(=C\c1ccc(O)c(OC)c1)C(=O)c1ccccc1`: the GI50 is 17.8 µM (inactive) in test [9]; 38.9 µM (inactive) in test [3]; > 41.7 µM (inactive) in test [4]; 10.6 µM (inactive) in [5]; 20.8 µM (inactive) in [6]; 27.6 µM (inactive) in test [8].
Consider `C=CCNC(=O)ON1C(=O)CCC1=O`, for which the GI50 in test [9], in test [1], in test [2], in [3], in test [4] and in test [5] was > 100 µM (inactive) in each case. Moreover, the GI50 in [6] was > 100 µM (inactive).
For `Cc1ccc(Sc2cc([N+](=O)[O-])cc(Sc3ccc(C)cc3)c2Sc2ccc(C)cc2)cc1`, the GI50 in test [9], in [1], in test [2], in [4], in test [5] and in test [6] was > 100 µM (inactive) in each case. In addition, the GI50 in test [8] was > 100 µM (inactive).
In the case of `O=C(/C=C/c1ccccc1F)C(c1ccccc1)c1ccccc1`, the GI50 in test [9] is 3.24 µM (inactive); in test [2], 3.85 µM (inactive); in test [4], 3.8 µM (inactive); in test [5], 3.37 µM (inactive); in [8] it was 1.99 µM (inactive).

Source of the values: ChEMBL document CHEMBL1201862, “PubChem BioAssay data set” (2004).
